Columns and labels:
[1] = system: SW620 cells; experiment: Cell viability assay, SW620; assay type: cell-based, human; conditions: Homo sapiens, SW-620, SW620, 72 hours, Cell Counting Kit-8, read-out: G12V IC50
Procedure, shortened: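 Cells were plated at 5,000 (NCI-H358) or 2,000 (AGS, SW620) per well and incubated overnight. They were then treated with compound in 0.5% DMSO for 72 h. Viability was read with CCK-8 as OD450 minus OD650 after 2 h, and IC50 came from a 4-parameter sigmoidal fit.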

[2] = molecular target: KRAS G12V binding to BRAF (Homo sapiens (Human), UniProt P01116+P62937, G12V); experiment: KRAS-BRAF with CYPA (50 nM) interaction assay (TR-FRET), G12V; conditions: GMPPNP loaded 6His-KRAS, GST-BRAF RBD
KRAS G12V binding to BRAF, sequence (P01116-2 other isoform, or with tags, fused parts or gaps G12V): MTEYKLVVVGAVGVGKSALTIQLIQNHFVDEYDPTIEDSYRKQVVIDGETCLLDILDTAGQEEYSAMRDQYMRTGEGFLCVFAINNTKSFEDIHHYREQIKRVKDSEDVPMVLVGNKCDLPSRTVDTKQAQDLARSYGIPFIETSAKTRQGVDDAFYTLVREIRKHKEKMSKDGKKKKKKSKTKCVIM
KRAS G12V binding to BRAF, sequence (P62937 whole entry): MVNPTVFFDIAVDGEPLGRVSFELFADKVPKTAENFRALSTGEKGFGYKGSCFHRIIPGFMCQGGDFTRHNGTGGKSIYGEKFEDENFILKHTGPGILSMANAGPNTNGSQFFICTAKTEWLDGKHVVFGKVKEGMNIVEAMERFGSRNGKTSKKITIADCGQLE
Procedure, shortened: (§1)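 Buffer 25 mM HEPES pH 7.4, 100 mM NaCl, 5 mM MgCl2, 10 μM GMPPNP, 0.1% BSA; final 50 nM tagless CYPA, 6.25 nM GMPPNP-loaded 6His-KRAS mutant, 1 nM GST-BRAF RBD. Compounds 16-point 3-fold series from 10 μM, 3 h; anti-6His-XL665/anti-GST-Tb added, 1.5 h; 665/615 nm ratio decrease versus DMSO.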

[3] = GSH reaction rates (inherent GSH reactivity); assay type: in vitro ADME; conditions: 1 μM compound, 5 mM GSH, 37° C.
Procedure, shortened: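 Compounds at 1 μM were incubated at 37° C with or without 5 mM GSH in 100 mM potassium phosphate pH 7.4 for 0-6 h. Samples were quenched with acetonitrile/N-ethylmaleimide and the remaining compound quantified by LC-MS/MS to derive T1/2.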

[4] = system: KRAS G12V in SW620; experiment: pERK inhibition assay, SW620; assay type: cell-based, human; conditions: Homo sapiens, SW-620, SW620 cells, 4 hours incubation
Procedure, shortened: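 NCI-H358, AGS and SW620 cells in RPMI-1640/10% FBS were plated overnight, then exposed to compound (0.5% DMSO final) for 4 h. After fixation and permeabilization, phospho-ERK was quantified by in-cell ELISA (HRP secondary, TMB, OD450); IC50 from a 4-parameter sigmoidal fit.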

[5] = molecular target: KRAS G12D binding to BRAF (Homo sapiens (Human), UniProt P01116+P62937, G12D); experiment: KRAS-BRAF with CYPA (50 nM) interaction assay (TR-FRET), G12D; conditions: GMPPNP loaded 6His-KRAS, GST-BRAF RBD
KRAS G12D binding to BRAF, sequence (P01116-2 other isoform, or with tags, fused parts or gaps G12D): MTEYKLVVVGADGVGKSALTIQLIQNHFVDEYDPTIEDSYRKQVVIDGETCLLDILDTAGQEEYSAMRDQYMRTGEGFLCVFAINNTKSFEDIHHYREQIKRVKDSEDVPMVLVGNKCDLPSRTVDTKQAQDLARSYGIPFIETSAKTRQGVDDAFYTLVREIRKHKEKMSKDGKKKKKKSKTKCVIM
KRAS G12D binding to BRAF, sequence (P62937 whole entry): as the sequence (P62937 whole entry) above
Procedure, shortened: as §1

CO[C@@H](C)c1ncc(N2CCOCC2)cc1-c1c2c3cc(ccc3n1CC(F)(F)F)-c1csc(n1)C[C@H](NC(=O)[C@H](C(C)C)N(C)C(=O)[C@H]1CCN(C(=O)[C@H](F)Cl)C1)C(=O)N1CCC[C@H](N1)C(=O)OCC(C)(C)C2 (atropisomer, axis not shown; (M)) [Example 25, (3S)-1-[(2R)-2-chloro-2-fluoro-acetyl]-N-[(1S)-1-[[(7S,13S)-(20M)-20-[2-[(1S)-1-methoxyethyl]-5-morpholino-3-pyridyl]-17,17-dimethyl-8,14-dioxo-21-(2,2,2-trifluoroethyl)-15-oxa-4-thia-9,21,27,28-tetrazapentacyclo[17.5.2.12,5.19,13.022,26]octacosa-1(25),2,5(28),19,22(26),23-hexaen-7-yl]carbamoyl]-2-methyl-propyl]-N-methyl-pyrrolidine-3-carboxamide]
IC50 [1]: 6 nM
IC50 [2]: > 10000 nM
Remaining at 6 hr in GSH (%) ([3]; pH 7.4, 6 hr): 100%
T1/2(hour) in GSH ([3]; potassium phosphate buffer pH 7.4): stable (If % depletion after 6 hour incubation is less than 20%, compounds were reported as stable)
IC50 [4]: 3 nM
IC50 [5]: > 10000 nM
